Measured values taken from patent EP3061750A1, “PYRAZOLE AMIDE COMPOUND CONTAINING DIPHENYL ETHER, AND APPLICATION THEREOF, AND PESTICIDE COMPOSITION” (Central China Normal University, priority 2013, dated 2015).
Read-outs that look alike come from different tables or passages of the source.

Columns and labels:
[1] = target: T1, succinate dehydrogenase (Sus scrofa, UniProt A5GZW8+D0VWV4+Q007T0); experiment: inhibitory activity on succinate dehydrogenase (DCIP reduction at 600 nm); assay type: biochemical, pig
T1 construct: succinate dehydrogenase, which was isolated from pig hearts; from tissue; host or cells: pig heart
T1 sequence (Q007T0 29-280): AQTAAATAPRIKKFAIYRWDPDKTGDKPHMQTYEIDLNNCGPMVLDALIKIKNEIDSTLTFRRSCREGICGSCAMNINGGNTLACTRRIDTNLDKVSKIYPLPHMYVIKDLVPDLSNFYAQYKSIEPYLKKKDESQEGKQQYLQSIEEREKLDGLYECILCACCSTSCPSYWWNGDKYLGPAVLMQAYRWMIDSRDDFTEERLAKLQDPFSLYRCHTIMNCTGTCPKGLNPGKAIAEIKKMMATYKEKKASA
T1 sequence (D0VWV4 30-169): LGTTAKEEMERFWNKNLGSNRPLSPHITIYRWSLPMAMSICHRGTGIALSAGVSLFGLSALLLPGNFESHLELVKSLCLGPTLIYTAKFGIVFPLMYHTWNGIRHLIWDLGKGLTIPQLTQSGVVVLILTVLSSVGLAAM
T1 sequence (A5GZW8 57-159 limits assumed): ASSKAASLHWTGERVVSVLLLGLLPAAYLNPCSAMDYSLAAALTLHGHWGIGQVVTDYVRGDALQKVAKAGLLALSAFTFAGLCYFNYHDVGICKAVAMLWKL
T1 sequence (Q0QF01 43-664 partner): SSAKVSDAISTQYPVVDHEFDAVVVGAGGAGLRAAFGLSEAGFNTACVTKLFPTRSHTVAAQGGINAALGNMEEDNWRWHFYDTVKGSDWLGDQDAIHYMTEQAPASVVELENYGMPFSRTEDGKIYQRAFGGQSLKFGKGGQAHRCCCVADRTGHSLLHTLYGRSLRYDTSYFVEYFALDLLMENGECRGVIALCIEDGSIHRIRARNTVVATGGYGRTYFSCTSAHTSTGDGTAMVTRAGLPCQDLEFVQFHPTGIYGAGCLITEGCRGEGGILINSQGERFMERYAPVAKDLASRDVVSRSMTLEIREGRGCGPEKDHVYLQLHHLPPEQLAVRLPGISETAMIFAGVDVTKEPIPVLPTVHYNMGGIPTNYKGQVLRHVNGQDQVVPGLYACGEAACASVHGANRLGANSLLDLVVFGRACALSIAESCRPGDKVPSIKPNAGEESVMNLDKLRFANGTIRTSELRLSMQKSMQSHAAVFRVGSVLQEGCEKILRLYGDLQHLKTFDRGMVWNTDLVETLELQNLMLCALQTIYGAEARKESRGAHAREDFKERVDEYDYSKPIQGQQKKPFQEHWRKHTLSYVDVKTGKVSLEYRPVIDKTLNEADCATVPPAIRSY
Method: This test was used to determine the inhibitory activity on the succinate dehydrogenase of the compounds prepared in Example 1, Preparation Examples 1 and 2 .
The enzyme used in the test example was succinate dehydrogenase, which was isolated from pig hearts.
Test Method: total volume was 1.8ml, the system comprised 100mM Na2HPO4-NaH2PO4 buffer (pH7.4), 0.3mM EDTA, 20mM sodium succinate, 53µM DCIP (2,6-dichloro indophenol sodium), 2nM succinate dehydrogenase. In water bath with 23 °C of constant temperature and 600rpm magnetic stirring, the reduction of the light absorption of substrate DCIP was monitored at a wavelength of 600nm, the experimental points within the linear range were collected, that is, the experimental points in which the consumption of substrate was controlled not exceeding 5% were collected. The molar extinction coefficient of DCIP was 21mM^-1cm^-1. The reduction amount of DCIP during the reaction time was calculated and linear slope was fitted, and then the initial velocity of the reaction was obtained by deducting the baseline slope.

[2] = test system: Rice sheath blight (Rhizoctonia solani); experiment: pot in vivo assay of bactericidal activity, rice sheath blight; conditions: for pest or weed control at 200 µg/mL: Rhizoctonia solani, read-out: Efficacy(%) rice sheath blight
Source text: (§1) This test is used to determine the bactericidal activity of the compounds prepared in Example 1, Preparation Examples 1 and 2.
(§2) The targets used in the test example are rice sheath blight and cucumber powdery mildew.
Test Method: According to "Standard Practice for determination of pesticide biological activity (SOP)", pyrazole amide compound containing diphenyl ether was dispensed to 5% emulsifiable concentrates (hereinafter referred to as 5% EC), the […] method (pot in vivo assay). The screening results on the two test targets of the compounds prepared in Example 1, Preparation Examples 1 and 2 were shown in Table 4.
Rice sheath blight (Rhizoctonia solani)
Two potted rice seedlings with uniform growth in true leaf stage were chosen, and dried by air after spray treatment. The side of bacteria cake with mycelium was closely attached on the leaves, after cultured at 22-26 °C under dark light in a moisture preserving manner for 24h, then cultured with natural light for about 4 days. The diameter of disease spot of each inoculating point was measured by using a caliper after the control material was fully attacked by disease, and the control effect was calculated.
(§3) Investigation method and grading standard adopted "Guidelines for the field efficacy trials of pesticides", and the control effect was calculated with the disease index. The disease index = Σ(number of diseased leaves at each grade×relative grade value) × 100/(total number of leaves×9); [formula] Control effect (%) = (disease index of control−disease index of treated) × 100/disease index of control. [formula]

[3] = test system: Cucumber powdery mildew (Sphaerotheca uliginea); experiment: pot in vivo assay of bactericidal activity, cucumber powdery mildew; conditions: for pest or weed control at 200 µg/mL: Cucumis sativus, read-out: Efficacy(%) cucumber powery mildew
Source text: as §1, §2
Test Method: According to "Standard Practice for determination of pesticide biological activity (SOP)", pyrazole amide compound containing diphenyl ether was dispensed to 5% emulsifiable concentrates (hereinafter referred to as 5% EC), […] method (pot in vivo assay). The screening results on the two test targets of the compounds prepared in Example 1, Preparation Examples 1 and 2 were shown in Table 4.
Cucumber powdery mildew (Sphaerotheca uliginea)
A cucumber seedling with uniform growth in true leaf stage was chosen, and dried in shade for 24h after spray treatment. Fresh cucumber powdery mildew spores on the cucumber leaves were collected and washed, and filtered through a double gauze to prepare a spore suspension with concentration of about 100,000 / ml, then spray inoculation was applied. The test materials inoculated were moved into artificial climate with relative humidity of 60-70% and temperature of 21-23 °C (indoor lighting), after about 10 days, investigating and grading were carried out according to the incidence of the blank control, and the control effect was calculated according to the disease index.
as §3

[4] = concentration 200 mg/L, 5% EC, pot

Cn1cc(C(=O)Nc2ccccc2Oc2ccccc2)c(C(F)(F)F)n1 [Comparative compound 12, reference compound]
IC50 [1]: 19.8 ± 1.07 µM | inhibition at 1 µM ([1]; read-out: inhibition ratio(%)): 0% | inhibition at 5 µM ([1]; read-out: inhibition ratio(%)): 10% | inhibition at 10 µM ([1]; read-out: inhibition ratio(%)): 22.3% | inhibition at 20 µM ([1]; read-out: inhibition ratio(%)): 38% | inhibition at 30 µM ([1]; read-out: inhibition ratio(%)): 50.3% | inhibition at 50 µM ([1]; read-out: inhibition ratio(%)): 61.8% | pest or weed control at 200 µg/mL [2]: 30.9% | pest or weed control at 200 µg/mL [3]: 0%

Cn1cc(C(=O)Nc2ccccc2Oc2ccc(C(C)(C)C)cc2)c(C(F)F)n1 [Comparative compound 21, reference compound]
IC50 [1]: 1.18 ± 0.0137 µM | inhibition at 0.1 µM ([1]; read-out: inhibition ratio(%)): 0% | inhibition at 0.2 µM ([1]; read-out: inhibition ratio(%)): 24.7% | inhibition at 0.3 µM ([1]; read-out: inhibition ratio(%)): 27.4% | inhibition at 0.5 µM ([1]; read-out: inhibition ratio(%)): 34.6% | inhibition at 1 µM ([1]; read-out: inhibition ratio(%)): 46.9% | inhibition at 3 µM ([1]; read-out: inhibition ratio(%)): 60.7% | inhibition at 10 µM ([1]; read-out: inhibition ratio(%)): 79.4% | inhibition at 50 µM ([1]; read-out: inhibition ratio(%)): 80.8% | pest or weed control at 200 µg/mL [2]: 22.3% | pest or weed control at 200 µg/mL [3]: 0%

Cn1cc(C(=O)Nc2ccccc2Oc2ccc(C(F)(F)F)cc2Cl)c(C(F)F)n1 [Compound II]
IC50 [1]: 0.0484 ± 0.00171 µM | inhibition at 0.01 µM ([1]; concentration 0.01 µM, read-out: inhibition ratio(%)): 11.7% | inhibition at 0.02 µM ([1]; concentration 0.02 µM, read-out: inhibition ratio(%)): 20.8% | inhibition at 0.03 µM ([1]; concentration 0.03 µM, read-out: inhibition ratio(%)): 31.8% | inhibition at 0.05 µM ([1]; concentration 0.05 µM, read-out: inhibition ratio(%)): 47.1% | inhibition at 0.1 µM ([1]; concentration 0.1 µM, read-out: inhibition ratio(%)): 60.7% | inhibition at 0.2 µM ([1]; concentration 0.2 µM, read-out: inhibition ratio(%)): 75.3% | inhibition at 0.5 µM ([1]; concentration 0.5 µM, read-out: inhibition ratio(%)): 83.8% | inhibition at 1 µM ([1]; concentration 1 µM, read-out: inhibition ratio(%)): 91.4% | inhibition at 10 µM ([1]; concentration 10 µM, read-out: inhibition ratio(%)): 97.9% | inhibition at 50 µM ([1]; concentration 50 µM, read-out: inhibition ratio(%)): 100% | pest or weed control at 200 µg/mL [2, 4]: 100% | efficacy on rice sheath bilght(%) ([2]; concentration 0.75 mg/L): 43.75% | efficacy on rice sheath bilght(%) ([2]; concentration 1.5 mg/L): 55.34% | efficacy on rice sheath bilght(%) ([2]; concentration 3.125 mg/L): 68.68% | efficacy on rice sheath bilght(%) ([2]; concentration 6.25 mg/L): 70.43% | efficacy on rice sheath bilght(%) ([2]; concentration 12.5 mg/L): 94.62% | efficacy on rice sheath bilght(%) ([2]; concentration 25 mg/L): 98.66% | efficacy on rice sheath bilght(%) ([2]; concentration 50 mg/L): 100% | efficacy on rice sheath bilght(%) ([2]; concentration 100 mg/L): 100% | pest or weed control at 200 µg/mL [3, 4]: 100% | efficacy on cucumber powery mildew(%) ([3]; concentration 6.25 mg/L): 0% | efficacy on cucumber powery mildew(%) ([3]; concentration 12.5 mg/L): 66.67% | efficacy on cucumber powery mildew(%) ([3]; concentration 25 mg/L): 94.44% | efficacy on cucumber powery mildew(%) ([3]; concentration 50 mg/L): 100% | efficacy on cucumber powery mildew(%) ([3]; concentration 100 mg/L): 100%

Cn1cc(C(=O)Nc2ccccc2Oc2ccc(Cl)cc2Cl)c(C(F)F)n1 [Compound I]
IC50 [1]: 0.401 ± 0.0103 µM | inhibition at 0.03 µM ([1]; read-out: inhibition ratio(%)): 18.3% | inhibition at 0.05 µM ([1]; read-out: inhibition ratio(%)): 21.6% | inhibition at 0.1 µM ([1]; read-out: inhibition ratio(%)): 27% | inhibition at 0.2 µM ([1]; read-out: inhibition ratio(%)): 37.4% | inhibition at 0.3 µM ([1]; read-out: inhibition ratio(%)): 42.1% | inhibition at 0.5 µM ([1]; read-out: inhibition ratio(%)): 52.3% | inhibition at 1 µM ([1]; read-out: inhibition ratio(%)): 66.9% | inhibition at 10 µM ([1]; read-out: inhibition ratio(%)): 74.4% | inhibition at 50 µM ([1]; read-out: inhibition ratio(%)): 73% | pest or weed control at 200 µg/mL [2]: 100% | efficacy on rice sheath bilght(%) ([2]; concentration 1 mg/L): 20.74% | efficacy on rice sheath bilght(%) ([2]; concentration 1.5 mg/L): 45.38% | efficacy on rice sheath bilght(%) ([2]; concentration 3.125 mg/L): 65.37% | efficacy on rice sheath bilght(%) ([2]; concentration 6.25 mg/L): 68.77% | efficacy on rice sheath bilght(%) ([2]; concentration 12.5 mg/L): 81.72% | efficacy on rice sheath bilght(%) ([2]; concentration 25 mg/L): 95% | efficacy on rice sheath bilght(%) ([2]; concentration 50 mg/L): 98% | efficacy on rice sheath bilght(%) ([2]; concentration 100 mg/L): 100% | pest or weed control at 200 µg/mL [3]: 100% | efficacy on cucumber powery mildew(%) ([3]; concentration 100 mg/L): 0%

Cn1cc(C(=O)Nc2ccccc2Oc2cccc(Cl)c2)c(C(F)(F)F)n1 [III-1]
IC50 [1]: 36.9 ± 1.47 µM | pest or weed control at 200 µg/mL [2]: 68.6% | pest or weed control at 200 µg/mL [3]: 22.2%

Cn1cc(C(=O)Nc2ccccc2Oc2ccc(Cl)cc2Cl)c(C(F)(F)F)n1 [III-2]
IC50 [1]: 2.7 ± 1.37 µM | pest or weed control at 200 µg/mL [2]: 0% | pest or weed control at 200 µg/mL [3]: 72.2%

Cn1cc(C(=O)Nc2ccccc2Oc2ccc(F)cc2)c(C(F)(F)F)n1 [III-3]
IC50 [1]: > 100 µM | pest or weed control at 200 µg/mL [2]: 57% | pest or weed control at 200 µg/mL [3]: 0%

COc1cc(Oc2ccccc2NC(=O)c2cn(C)nc2C(F)(F)F)cc(OC)c1OC [III-4]
IC50 [1]: > 100 µM | pest or weed control at 200 µg/mL [2]: 0% | pest or weed control at 200 µg/mL [3]: 0%

COc1cc(Oc2ccccc2NC(=O)c2cn(C)nc2C(F)F)cc(OC)c1OC [III-5]
IC50 [1]: > 100 µM | pest or weed control at 200 µg/mL [2]: 0% | pest or weed control at 200 µg/mL [3]: 0%

Cn1cc(C(=O)Nc2ccccc2Oc2ccc(C#N)cc2)c(C(F)(F)F)n1 [III-6]
IC50 ([1]; cells printed as "-" (footnote)): > 100 µM | pest or weed control at 200 µg/mL [2]: 30.2% | pest or weed control at 200 µg/mL [3]: 0%

Cn1cc(C(=O)Nc2ccccc2Oc2ccc(C#N)cc2)c(C(F)F)n1 [III-7]
IC50 [1]: > 100 µM | pest or weed control at 200 µg/mL [2]: 45% | pest or weed control at 200 µg/mL [3]: 0%

Cn1cc(C(=O)Nc2ccccc2Oc2ccccc2Cl)c(C(F)(F)F)n1 [III-8]
IC50 [1]: 1.98 ± 1.39 µM | pest or weed control at 200 µg/mL [2]: 81.9% | pest or weed control at 200 µg/mL [3]: 0%

Cn1cc(C(=O)Nc2ccccc2Oc2ccc(Cl)cc2)c(C(F)(F)F)n1 [III-9]
IC50 ([1]; succinate dehydrogenase isolated from pig hearts, pH7.4, 23 °C): 4.9 ± 1.28 µM | pest or weed control at 200 µg/mL [2]: 66.3% | pest or weed control at 200 µg/mL [3]: 0%

Cn1cc(C(=O)Nc2ccccc2Oc2ccc(Cl)cc2)c(C(F)F)n1 [III-10]
IC50 [1]: 2.02 ± 1.15 µM | pest or weed control at 200 µg/mL [2]: 68.3% | pest or weed control at 200 µg/mL [3]: 0%

Cn1cc(C(=O)Nc2ccccc2Oc2ccc(C(F)(F)F)cc2)c(C(F)(F)F)n1 [III-11]
IC50 [1]: 3.17 ± 1.12 µM | pest or weed control at 200 µg/mL [2]: 56.3% | pest or weed control at 200 µg/mL [3]: 0%

Cn1cc(C(=O)Nc2ccccc2Oc2ccc(C(F)(F)F)cc2)c(C(F)F)n1 [III-12]
IC50 [1]: 1.62 ± 1.35 µM | pest or weed control at 200 µg/mL [2]: 72.3% | pest or weed control at 200 µg/mL [3]: 0%

Cc1cccc(Oc2ccccc2NC(=O)c2cn(C)nc2C(F)(F)F)c1C [III-13]
IC50 [1]: 9.86 ± 1.27 µM | pest or weed control at 200 µg/mL [2]: 63.2% | pest or weed control at 200 µg/mL [3]: 0%

Cc1cccc(Oc2ccccc2NC(=O)c2cn(C)nc2C(F)F)c1C [III-14]
IC50 [1]: 3.22 ± 1.33 µM | pest or weed control at 200 µg/mL [2]: 65.9% | pest or weed control at 200 µg/mL [3]: 0%

Cc1cc(C)cc(Oc2ccccc2NC(=O)c2cn(C)nc2C(F)(F)F)c1 [III-15]
IC50 [1]: 5.12 ± 1.04 µM | pest or weed control at 200 µg/mL [2]: 55.2% | pest or weed control at 200 µg/mL [3]: 0%
